Measurements from patent publication US20050164233A1, “Compositions, kits and methods for identification and modulation of type I diabetes” (priority 2000, published 2005).

Columns and labels:
[1] = test system: Vα24JαQ T cell clone GW4 (nondiabetic, IL-4+); assay: Cytokine secretion (ELISA) from anti-CD3-activated Vα24JαQ T cell clone GW4, inhibitor studies; assay type: cell-based, human; details: IL-4+ clone; for secretion of IFN-γ / anti-CD3-induced IL-4 secretion: plate-bound anti-CD3 1 μg/ml, 4 h, ELISA, 10 nM wortmannin; for secretion of IFN-γ: 10 μM LY294002; for IL-4 secretion after inhibition of PI3-kinase: anti-CD3 plus PI3-kinase inhibitor, 1 ng/ml PMA or 1 μg/ml ionomycin included; for anti-CD3-induced IL-4 secretion: 10 μM LY294002, 50 μM PD98059, 50 μM SB203580
Protocol: (§1) Single, Vα24-positive, CD4/8 negative single-cell sorts were grown on irradiated allogeneic feeders at 50,000 cells per well with 5,000 cells per well irradiated (5,000 rads) 721.221 lymphoblastoid cells with 1 μg/ml PHA-P, IL-2 and IL-7 each at 10 units/ml (Boehringer Mannheim) and propagated as described (Wilson et al. (1998) Nature 391: 177-181). Clones positive for Vα24 and NKR-P1A by flow cytometry and a Vα24JαQ CDR3 T cell antigen receptor sequence were assayed for cytokine secretion in C1R/CD1s restriction experiments. For cytokine secretion and inhibitor studies, Vα24JαQ T cell clones GW4 (nondiabetic) and ME10 (diabetic) at 5×10^4 cells per well were activated with plate-bound anti-CD3 or Ig control at 1 μg/ml. Secreted IL-4 and IFN-γ were assayed by ELISA after 4 h of activation as described (Wilson et al. (1998) Nature 391: 177-181). Optimal concentrations of inhibitors previously were determined by inhibitor dose-response experiments. The concentrations of inhibitors used were 10 nM wortmannin; 10 μM LY294002, 50 μM PD98059, a mitogen-activated protein kinase kinase inhibitor, and 50 μM SB203580, a p38 kinase inhibitor. The concentrations of phorbol ester and calcium ionophore used were 1 ng/ml phorbol 12-myristate 13-acetate (PMA) and 1 μg/ml ionomycin. Cyclosporin A (CsA) was used at 5 ng/ml as a negative control, due to itS ability to prevent T cell activation. Calcium flux was determined by loading cells with indo-1 as per the manufacturer's specifications (Molecular Probes), followed by activation with anti-CD3 at 10 μg/ml. Maximal calcium flux was determined by the addition of ionomycin.

[2] = test system: Vα24JαQ T cell clone ME10 (diabetic, IL-4-null); assay: Cytokine secretion (ELISA) from anti-CD3-activated Vα24JαQ T cell clone ME10, inhibitor studies; assay type: cell-based, human; details: for secretion of IFN-γ: IL-4-null clone, plate-bound anti-CD3 1 μg/ml, 4 h, ELISA, 10 nM wortmannin, 10 μM LY294002; for defect in IL-4 secretion: diabetic-derived clone ME10, 1 ng/ml PMA, 1 μg/ml ionomycin, alone or in combination
Protocol: as §1

SMILES | secretion of IFN-γ [1] | secretion of IFN-γ [2] | IL-4 secretion after inhibition of PI3-kinase [1] | defect in IL-4 secretion [2] | anti-CD3-induced IL-4 secretion [1]
COC[C@H]1OC(=O)c2coc3c2[C@@]1(C)C1=C(C3=O)[C@@H]2CCC(=O)[C@@]2(C)C[C@H]1OC(C)=O [wortmannin] | no effect | no effect |  |  | 
C[C@H](CCC(=O)O)C[C@H](C)C[C@H](C)C(=O)/C=C(\O)[C@H](C)C[C@H](C)C/C=C/[C@@H](C)[C@@H](O)[C@@H](C)[C@@H](O)C[C@@H]1CC[C@@](C)([C@H]2CC[C@@](C)([C@@H](C)O)O2)O1 [ionomycin] |  |  | rescued | Neither of these substances alone or in combination repaired the defect | 
CCCCCCCCCCCCCC(=O)O[C@@H]1[C@@H](C)[C@@]2(O)[C@@H](C=C(CO)C[C@]3(O)C(=O)C(C)=C[C@@H]23)[C@@H]2C(C)(C)[C@]12OC(C)=O [PMA, phorbol 12-myristate 13-acetate] |  |  | rescued | Neither of these substances alone or in combination repaired the defect | 
C[S+]([O-])c1ccc(-c2nc(-c3ccncc3)c(-c3ccc(F)cc3)[nH]2)cc1 (stereo not shown) [SB203580] |  |  |  |  | no effect
O=c1cc(N2CCOCC2)oc2c(-c3ccccc3)cccc12 [LY294002] | no effect | no effect |  |  | 
COc1cccc(-c2cc(=O)c3ccccc3o2)c1N [PD98059] |  |  |  |  | no effect
